Results from patent publication US20230203058A1, “MACROCYCLIC DIAMINE DERIVATIVES AS ENT INHIBITORS FOR THE TREATMENT OF CANCERS, AND COMBINATION THEREOF WITH ADENOSINE RECEPTOR ANTAGONISTS” (ITEOS BELGIUM SA, priority 2020, published 2023).
Where two headings read alike, the source gives them in different places.

Experiments:
[1] = tested on: stimulated primary human T cells; assay: T cell proliferation assay (rescue of proliferation in presence of ATP, CFSE dilution); assay type: cell-based; details: 100 uM ATP
Protocol: The aim of this study was to determine the potency of equilibrative nucleoside transporter 1 (ENT1) inhibitors to rescue proliferation by stimulated primary human T cells incubated in the presence of 100 uM Adenosine triphosphate (ATP), in baseline conditions (condition A) or in the presence of various proteins known to bind small molecules (condition B). Condition A: X-VIVO15 Condition B: X-VIVO15, 2% Human Serum Albumine (HSA) and 0,1% α-1-Acid Glycoprotein (AAG)
Cryopreserved purified human CD3+ T cells were thawed and washed twice with RPMI1640 medium, UltraGlutamine containing 10% hiFBS.
Cells were suspended in PBS containing 10% hiFBS. Cells were stained with CFSE by adding 2 µM solution in PBS, to get a final 1 µM CFSE solution. Cells were incubated while rotating for 5 minutes. Reaction was stopped by adding PBS with 10% FBS and cells were centrifuged for 5 minutes at 1500 rpm.
Cells were resuspended at 1.6 ×10^6 cells/mL, either in X-VIVO15 medium or in 4% Human Serum Albumin and 0,2% α-1-Acid Glycoprotein. 50 µL of cell suspension (8×10^4 T cells) was added to wells of sterile round-bottom 96-well plates. Cells were activated by adding 50 µL of anti-CD3 anti-CD28 coated microbeads, suspended either in XVIVO-15 medium or in 4% HSA and 0,2% α-1-Acid Glycoprotein, at a ratio of one microbead per two cells. Serial dilutions of the ENT1 inhibitors were prepared in X-VIVO15 from 10 mM stock solutions in DMSO, and 50 µL was added to the wells. ATP powder was diluted in X-VIVO15, and 50 µL of this compound was added to the wells to reach a final assay concentration of 100 µM. Final volume of 200 µL. The experiments were also performed in 384 well plates - all volumes reduced by a factor of 4 (12,5 µL) with a final volume of 50 µL. Experiments were performed in duplicate. The cells were placed in a 37° C. humidified tissue culture incubator with 5% CO2 for 72 hours for 96 well plates, 96 hours for 384 well plates. After 72 or 96 hours, proliferation was measured determined by CFSE dilution via flow cytometry.

hERG ion channel = target: T1, hERG ion channel (Homo sapiens, UniProt Q12809); assay: hERG ion channel inhibition (Patchliner automated patch-clamp, CHO cells); assay type: cell-based; details: whole-cell, room temperature, 6-point curve up to 100 µM
T1 construct: Chinese Hamster Ovary cell lines stably expressing the full-length ion channel; expressed in transfected cells
T1 sequence (Q12809 whole entry): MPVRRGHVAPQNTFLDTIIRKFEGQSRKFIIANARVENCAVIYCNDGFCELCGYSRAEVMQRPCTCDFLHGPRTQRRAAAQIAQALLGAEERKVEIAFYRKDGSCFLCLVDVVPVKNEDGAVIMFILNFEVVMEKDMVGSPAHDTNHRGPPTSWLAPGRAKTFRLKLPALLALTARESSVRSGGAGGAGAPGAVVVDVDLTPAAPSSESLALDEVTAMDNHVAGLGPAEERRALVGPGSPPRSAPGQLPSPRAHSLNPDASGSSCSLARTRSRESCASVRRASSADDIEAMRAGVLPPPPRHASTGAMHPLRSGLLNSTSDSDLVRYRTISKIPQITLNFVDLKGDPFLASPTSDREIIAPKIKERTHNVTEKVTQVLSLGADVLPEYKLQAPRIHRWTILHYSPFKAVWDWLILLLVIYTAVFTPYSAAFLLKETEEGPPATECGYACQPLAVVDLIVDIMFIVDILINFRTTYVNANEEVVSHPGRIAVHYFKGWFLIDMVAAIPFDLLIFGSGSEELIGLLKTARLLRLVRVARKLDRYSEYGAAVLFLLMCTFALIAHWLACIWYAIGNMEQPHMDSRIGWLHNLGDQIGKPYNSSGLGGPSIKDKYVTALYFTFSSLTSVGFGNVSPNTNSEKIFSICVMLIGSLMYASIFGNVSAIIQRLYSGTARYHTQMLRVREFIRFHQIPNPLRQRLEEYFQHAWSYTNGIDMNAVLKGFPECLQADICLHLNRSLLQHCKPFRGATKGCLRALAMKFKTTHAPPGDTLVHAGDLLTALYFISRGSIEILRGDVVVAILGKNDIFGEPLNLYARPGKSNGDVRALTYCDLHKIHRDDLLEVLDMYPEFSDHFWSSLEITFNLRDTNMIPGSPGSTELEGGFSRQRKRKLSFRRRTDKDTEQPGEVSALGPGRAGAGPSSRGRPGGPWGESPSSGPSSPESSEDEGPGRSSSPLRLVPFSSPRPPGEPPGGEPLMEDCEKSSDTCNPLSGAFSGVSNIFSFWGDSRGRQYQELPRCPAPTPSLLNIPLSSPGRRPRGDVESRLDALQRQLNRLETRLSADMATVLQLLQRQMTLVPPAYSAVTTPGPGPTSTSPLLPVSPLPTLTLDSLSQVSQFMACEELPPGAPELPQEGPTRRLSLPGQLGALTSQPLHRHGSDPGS
Protocol: The compounds were tested for inhibition of hERG ion channel. 6-Point concentration-response curves were generated on the Patchliner automated patch-clamp using serial dilutions from a maximum test concentration of 100 µM.
Compounds were solubilised to 33 mM in DMSO before dilution in HBPS to 100 µM. 6-Point concentration-response curves were generated using serial dilutions from the top test concentration. Electrophysiological recordings were made from a Chinese Hamster Ovary cell lines stably expressing the full-length ion channel. Single cell ionic currents were measured in whole-cell configuration at room temperature (21-23° C.) using a Patchliner (Nanion Technologies). The internal solution for hERG contained (mM): 120 KF, 20 KCl, 10 EGTA, 10 HEPES and was buffered to pH 7.3. The external solution (HEPES-buffered saline, HBPS) contained (mM): 138 NaCl, 4.5 KCl, 1.8 CaC12, 1.0 MgC12, 10 HEPES, 10 glucose, buffered to pH7.4. Cells were clamped at a holding potential of -80 mV before a depolarising step appropriate for the hERG channel. Currents were measured from the step and referenced to the holding current. Compounds were incubated for 90 seconds. Concentration-response curves were generated by cumulative addition of compound with concentrations low to high. In all cases, steady-state inhibition was achieved before the next concentration of compound was added.
IC50 values were obtained from a 4-parameter logistic fit of the concentration-response data: […]

human ENT1 [2] = target: T2, human ENT1 (Homo sapiens, UniProt Q99808); assay: ENT1 binding assay (competition with Sahenta-DY647 on JAR cells); parameters: JAR cells expressing ENT1 were bought from ATCC® (HTB-144TM); host or cells: JAR cells (human choriocarcinoma line; whole cells); details: competition with Sahenta-DY647 100 nM, 4° C.
T2 sequence (Q99808 1-456): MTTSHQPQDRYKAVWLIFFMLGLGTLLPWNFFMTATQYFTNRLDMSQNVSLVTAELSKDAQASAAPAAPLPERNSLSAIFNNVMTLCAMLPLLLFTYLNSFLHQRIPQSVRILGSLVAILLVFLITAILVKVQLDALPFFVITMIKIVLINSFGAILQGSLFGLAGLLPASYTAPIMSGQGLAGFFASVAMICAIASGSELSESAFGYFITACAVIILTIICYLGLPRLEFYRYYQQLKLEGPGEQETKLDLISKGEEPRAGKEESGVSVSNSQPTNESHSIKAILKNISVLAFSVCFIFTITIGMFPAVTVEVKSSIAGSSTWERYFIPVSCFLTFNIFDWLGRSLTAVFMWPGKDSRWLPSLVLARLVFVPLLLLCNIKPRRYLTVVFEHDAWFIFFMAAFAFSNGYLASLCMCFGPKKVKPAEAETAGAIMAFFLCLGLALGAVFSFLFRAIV
Method in brief: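 Competition binding on intact JAR cells (50000 per well) in HBSS with 10 mM Hepes and 0.1% BSA. Cells pre-incubated with compound 30 min at 4 °C, then Sahenta-DY647 added at its IC90 (100 nM) for another 30 min at 4 °C; after washing, fluorescence read at Ex 630/Em 670 nm.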

human ENT1 [3] = target: T2, human ENT1; assay: Uridine transport inhibition assay (3H-uridine uptake in MDCKII-ENT1-LV cells); assay type: cell-based; details: uridine 1 µM, 1 min at 25° C.
From the text: The aim of this study was to determine the potency of equilibrative nucleoside transporter 1 (ENT1) inhibitors by measuring ENT1-mediated transport is the cellular uptake assay. The human ENT1 transporter can be stably expressed in Madin-Darby Canine Kidney II (MDCKII) cells via transduction. Uridine is efficiently transported by ENT1 and is used as probe in the assay as 3 H-uridine. The interaction is detected as the modulation of the initial rate of 3 H-uridine transport by human ENT1 into MDCKII-ENT1-LV cells stably expressing ENT1 uptake transporter.

MCA205 cells = assay: Syngeneic fibrosarcoma model (MCA205, FIG. 4); assay type: in vivo, C57BL/6 mice
Protocol: FIG. 4 consists of three graphs: A, B, and C depicting the evalution of to assess the anti-tumor efficacy of compound Compound 8 in syngeneic fibrosarcoma model.
To assess the anti-tumor efficacy of compound Compound 8 in syngeneic fibrosarcoma model, C57BL/6 (n=8) were subcutaneously inoculated with […] MCA205 cells in the right flank. At day 8 after inoculation the mice were randomized according tumor size and received oral treatment of Compound 8 at 10 mg/kg or its vehicle. The mice were monitored 3 times a week for tumor measurements, and the data plotted below. […] (FIG. 4B and FIG. 4C) At day 21 after inoculation, 57% of the mice treated with 10 mg/kg of Compound 8 were responsive to Compound 8 treatment and at day 31 15% of the mice presented significant tumor growth delay with tumors below 1000 mm^3. The statistical analysis was performed in JMP software using linear fixed model.

human T cells = assay: T cell stimulation assay (Example III, FIG. 1); assay type: cell-based; details: ATP 100 µM
Protocol: FIG. 1A depicts a graph of log concentration (M) versus percent proliferation. Purified human T cells were activated with anti-CD3/CD28 dynabeads in the presence of ATP (100 µM) as a source of adenosine for 96 h and then proliferation was assessed by CFSE dilution.
FIG. 1B depicts a graph of log concentration of ENT1 inhibitor (M) versus percent proliferation. Experiment performed as in FIG. A with the addition of HSA and AAG to the culture medium (final concentration 2 and 0.1%, respectively).
Peripheral blood mononuclear cells (PBMCs) were first isolated via centrifugation of fresh whole blood over Lymphoprep using SepMate-50 tubes (both from […] Technologies) according to the manufacturer’s instructions. Human T cells were then isolated from the PBMCs using the EasySep Human T cell Isolation Kit ([…] Technologies) according to the manufacturer’s instructions and the cells were cryopreserved in FBS with 10% DMSO until required.
Cryopreserved human T cells were thawed on the day of the experiment and resuspended in PBS with 10% FBS at approximately 1 × 10^7 cells/ml. This cell suspension was diluted 1:1 with 2 µM CFSE solution (ThermoFisher Scientific) in PBS and incubated for 5 minutes at room temperature. The labelling reaction was quenched by further addition of PBS with 10% FBS, and then the cells were washed into X-VIVO15 medium (Lonza) for use in the T cell assay.
CFSE-labelled T cells were plated at 2 × 10^4 cells per well in 384 well plates in the presence of ATP (100 µM, Sigma-Aldrich) as a source of adenosine. Activation was driven by the addition of Dynabeads Human T-Activator CD3/CD28 (ThermoFisher Scientific) at a ratio of 0,5 beads per T cell. ENT1 inhibitor molecules including the reference molecule dilazep (Tocris Bioscience) were added, the volume of the wells was adjusted to 50 µl with X-VIVO15 medium and the plates were cultured in a humidified incubator for 96 h at 37° C. with 5% CO2. In some experiments the culture was supplemented with human serum albumin (HSA) and alpha-1-acid glycoprotein (AAG, both Sigma-Aldrich) at final concentrations of 2 and 0,1%, respectively.
Analysis of proliferation via CSFE dilution was performed by flow cytometry using a BD LSR Fortessa with data analysis on FlowJo (BD Biosciences).

[4] = Condition A: X-VIVO15, read-out: T Cell proliferation (Condition A) IC50
[5] = Condition B: X-VIVO15, 2% HSA and 0,1% AAG, read-out: (2) T Cell proliferation (Condition B) IC50
[6] = anti-CD3/CD28 dynabeads, 96 h (FIG. 1A), read-out: IC50 of restoration of T cell proliferation
[7] = with HSA 2% and AAG 0,1% (FIG. 1B), read-out: IC50 of restoration of T cell proliferation under high protein binding conditions

| Compound | IC50 [1, 4] [nM] | IC50 [1, 5] [nM] | IC50 (hERG ion channel) [nM] | IC50 (human ENT1 [2]) [nM] | IC50 (human ENT1 [3]) [nM] | Median tumor growth kinetics versus vehicle (MCA205 cells; 10 mg/kg oral (FIG. 4A)) | Mice responsive to treatment (MCA205 cells; 10 mg/kg oral, day 21 after inoculation) [%] | Mice with significant tumor growth delay, tumors below 1000 mm^3 (MCA205 cells; 10 mg/kg oral, day 31 after inoculation) [%] | IC50 (human T cells; [6]) [nM] | IC50 (human T cells; [7]) [nM] |
| --- | --- | --- | --- | --- | --- | --- | --- | --- | --- | --- |
| COc1cc(C(=O)OC2CCCOc3cc(cc(OC)c3OC)C(=O)OCCCN3CCN(CC2)CC(F)(F)C3)cc(OC)c1OC (stereo not drawn) [Compound 4, 16,16-difluoro-74,75-dimethoxy-6-oxo-5,8-dioxa-1(1,4)-diazepana-7(1,3)-benzenacyclotetradecaphane-12-yl 3,4,5-trimethoxybenzoate] | < 1 | 1 to 20 | 73000 | 1 to 20 | 1 to 20 |  |  |  |  |  |
| COc1cc(C(=O)OC2CCCOc3cc(cc(OC)c3OC)C(=O)NCCCN3CCCN(CC2)CC3)cc(OC)c1OC (stereo not drawn) [Compound 8, 74,75-dimethoxy-6-oxo-8-oxa-5-aza-1(1,4)-diazepana-7(1,3)-benzenacyclotetradecaphane-12-yl 3,4,5-trimethoxybenzoate] |  |  |  | 1 to 20 |  | slight change in tumor size | 57 | 15 | 2 | 16 |
| COc1cc(C(=O)O[C@@H]2CCCOc3cc(cc(OC)c3OC)C(=O)NCCCN3CCCN(CC2)CC3)cc(OC)c1OC [Compound 10, (12R)-74,75-dimethoxy-6-oxo-8-oxa-5-aza-1(1,4)-diazepana-7(1,3)-benzenacyclotetradecaphane-12-yl 3,4,5-trimethoxybenzoate] | 1 to 20 | 20 to 500 | 3400 | 1 to 20 | 1 to 20 |  |  |  |  |  |
| COc1cc(C(=O)O[C@@H]2CCCOc3cc(cc(OC)c3OC)C(=O)N(C)CCCN3CCCN(CC2)CC3)cc(OC)c1OC [Compound 13, (12R)-74,75-dimethoxy-5-methyl-6-oxo-8-oxa-5-aza-1(1,4)-diazepana-7(1,3)-benzenacyclotetradecaphane-12-yl 3,4,5-trimethoxybenzoate] | 1 to 20 | > 500 |  | 1 to 20 | 1 to 20 |  |  |  |  |  |
| COc1cc2cc(c1OC)OCCCC(OC(=O)c1ccccn1)CCN1CCCN(CCCOC2=O)CC1 (stereo not drawn) [Compound 52, 74,75-dimethoxy-6-oxo-5,8-dioxa-1(1,4)-diazepana-7(1,3)-benzenacyclotetradecaphane-12-yl picolinate] |  |  | 2700 | 1 to 20 |  |  |  |  |  |  |
| COc1cc(C(=O)OCCCN2CCCN(CCCOC(=O)c3cc(OC)c(OC)c(OC)c3)CC2)cc(OC)c1OC [Dilazep, dilazep, reference compound] | 1 to 20 | 20 to 500 | 900 |  |  |  |  |  | 71 | 337 |
